Assay results as given in patent publication CN114106008A, “一种从丹参中提取分离的二萜醌类化合物及其方法和应用” (Chengdu Push Bio Technology Co ltd, priority 2021, dated 2022).

Experiments:
[1] = test system: human large cell lung cancer cells H460 [人大细胞肺癌细胞 H460]; assay: MTT proliferation inhibition, H460 cells, 72 h; type: cell-based
[2] = Water solubility (statement in words); type: physicochemical
[3] = test system: human diffuse large B lymphoma cells TMD-8 [人弥漫大B淋巴瘤细胞TMD-8]; assay: MTT proliferation inhibition, TMD-8 cells, 72 h; type: cell-based
[4] = test system: human liver cancer cells HEPG-2 [人肝癌细胞HEPG-2]; assay: MTT proliferation inhibition, HEPG-2 cells, 72 h; type: cell-based; settings: 0.625-20 μg/ml
[5] = test system: human acute myeloid leukemia cells MOLM-13 [人急性髓系白血病细胞MOLM-13]; assay: MTT proliferation inhibition, MOLM-13 cells, 72 h; type: cell-based
[6] = test system: human myelomonocytic leukemia cells MV-4-11 [人髓性单核细胞白血病细胞 MV-4-11]; assay: MTT proliferation inhibition, MV4-11 cells, 72 h; type: cell-based
[7] = test system: human cervical cancer cells HELA [人宫颈癌细胞HELA]; assay: MTT proliferation inhibition, HELA cells, 72 h; type: cell-based; settings: within the measured range (0.625-20 μg/ml)

## 呋喃并[2 ' ',3 ' ':5 ' ',6 ' ']萘并[1 ' ',2'':7 ',8 ']环十二烷[1 ',2':5,6]萘并[1,2-b]呋喃-10,11,21,22-四酮,6,7,8,9,19,20-六氢-1,12,17-三甲基-6-亚甲基-,(17E)- [四氢甘西鼠尾新酮A]
[1]; Figure 3, 0.625-20 μg/ml
  inhibition, concentration dependence: 呈剂量依赖性
[1]; MTT
  IC50: 1.131 µg/mL
[2]
  water solubility: 水溶性较差
[3]; Figure 3, 0.625-20 μg/ml
  inhibition, concentration dependence: 呈剂量依赖性
[3]; MTT
  IC50: 1.388 µg/mL
[4]
  in vitro inhibitory activity: 体外抑制活性较弱
[5]; Figure 3, 0.625-20 μg/ml
  inhibition, concentration dependence: 呈剂量依赖性
[5]; MTT
  IC50: 1.9 µg/mL
[6]; Figure 3, 0.625-20 μg/ml
  inhibition, concentration dependence: 呈剂量依赖性
[6]; MTT
  IC50: 1.239 µg/mL
[7]
  in vitro inhibitory activity: 在测量范围内未发现抑制活性
